ChEMBL document CHEMBL1147165, “Synthesis and alpha(1)-adrenoceptor antagonist activity of derivatives and isosters of the furan portion of (+)-cyclazosin” (Bioorg Med Chem, 2007)

Columns and labels:
[1] = molecular target: T1, Alpha-1A adrenergic receptor (Rattus norvegicus) (UniProt P43140); test: (§1) Antagonist activity against adrenergic alpha-1A receptor in rat prostatic vas deferens assessed as inhibition of noradrenaline-induced contraction; type: functional, tissue-based
T1 sequence (whole entry): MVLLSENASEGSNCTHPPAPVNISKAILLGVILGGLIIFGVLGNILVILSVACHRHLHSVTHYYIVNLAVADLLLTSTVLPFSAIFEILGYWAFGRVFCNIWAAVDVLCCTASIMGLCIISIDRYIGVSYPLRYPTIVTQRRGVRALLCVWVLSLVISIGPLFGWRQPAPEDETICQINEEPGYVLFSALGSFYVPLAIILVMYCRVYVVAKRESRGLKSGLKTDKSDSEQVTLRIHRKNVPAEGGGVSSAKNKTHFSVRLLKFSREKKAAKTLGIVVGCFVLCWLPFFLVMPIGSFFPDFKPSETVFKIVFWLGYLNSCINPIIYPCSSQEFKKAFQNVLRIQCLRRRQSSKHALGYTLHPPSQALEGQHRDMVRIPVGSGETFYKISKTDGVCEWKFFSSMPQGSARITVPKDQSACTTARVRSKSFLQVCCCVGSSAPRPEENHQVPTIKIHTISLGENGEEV

[2] = molecular target: T2, Alpha-1B adrenergic receptor (Rattus norvegicus) (UniProt P15823); test: (§2) Antagonist activity against adrenergic Alpha-1B receptor in rat spleen assessed as inhibition of phenylephrine-induced response; type: functional, tissue-based
T2 sequence (whole entry): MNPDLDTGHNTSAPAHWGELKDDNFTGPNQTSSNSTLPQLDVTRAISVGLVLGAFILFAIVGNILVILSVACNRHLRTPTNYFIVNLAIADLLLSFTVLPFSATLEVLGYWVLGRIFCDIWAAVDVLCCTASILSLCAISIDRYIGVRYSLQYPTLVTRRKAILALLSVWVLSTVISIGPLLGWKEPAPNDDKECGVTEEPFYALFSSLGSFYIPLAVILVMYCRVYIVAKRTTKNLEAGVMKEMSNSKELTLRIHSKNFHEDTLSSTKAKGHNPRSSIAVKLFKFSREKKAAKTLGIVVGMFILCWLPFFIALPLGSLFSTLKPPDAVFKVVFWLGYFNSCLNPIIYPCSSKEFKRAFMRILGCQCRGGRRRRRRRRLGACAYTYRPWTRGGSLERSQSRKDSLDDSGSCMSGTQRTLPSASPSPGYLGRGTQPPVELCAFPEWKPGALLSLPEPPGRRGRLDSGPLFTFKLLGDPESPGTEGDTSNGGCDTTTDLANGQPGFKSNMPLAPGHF

[3] = molecular target: T3, Alpha-1D adrenergic receptor (Rattus norvegicus) (UniProt P23944); test: (§3) Antagonist activity against adrenergic Alpha-1D receptor in rat thoracic aorta assessed as noradrenaline-induced response; type: functional, tissue-based
T3 sequence (whole entry): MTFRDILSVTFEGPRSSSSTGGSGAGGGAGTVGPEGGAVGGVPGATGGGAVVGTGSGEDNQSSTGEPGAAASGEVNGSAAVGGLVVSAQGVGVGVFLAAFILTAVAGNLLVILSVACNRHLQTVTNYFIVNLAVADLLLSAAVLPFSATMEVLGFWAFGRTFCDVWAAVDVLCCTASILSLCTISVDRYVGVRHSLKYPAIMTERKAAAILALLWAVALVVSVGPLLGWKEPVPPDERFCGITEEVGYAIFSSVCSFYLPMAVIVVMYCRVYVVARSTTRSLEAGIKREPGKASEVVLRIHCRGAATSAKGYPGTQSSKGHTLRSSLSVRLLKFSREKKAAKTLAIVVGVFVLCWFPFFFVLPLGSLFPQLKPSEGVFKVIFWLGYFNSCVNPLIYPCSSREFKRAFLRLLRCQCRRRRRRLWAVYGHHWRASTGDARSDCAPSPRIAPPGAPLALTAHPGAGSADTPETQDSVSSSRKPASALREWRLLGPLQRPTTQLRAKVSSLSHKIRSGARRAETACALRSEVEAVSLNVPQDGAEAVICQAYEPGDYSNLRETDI

[4] = molecular target: Alpha adrenergic receptor 1A and 1B (Rattus norvegicus) (UniProt P15823+P43140); test: Selectivity ratio for rat adrenergic alpha-1A receptor over rat adrenergic Alpha-1B receptor; type: functional
Rattus norvegicus = species: Rattus norvegicus; test: Selectivity ratio for rat adrenergic Alpha-1D receptor over rat adrenergic Alpha-1B receptor; type: functional
[5] = molecular target: Alpha adrenergic receptor 1A and 1D (Rattus norvegicus) (UniProt P23944+P43140); test: Selectivity ratio for rat adrenergic alpha-1A receptor over rat adrenergic Alpha-1D receptor; type: functional
[6] = molecular target: T4, Alpha-1A adrenergic receptor (Homo sapiens, UniProt P35348); test: Displacement of [3H]prazosin from human adrenergic alpha-1a receptor expressed in CHO cells; type: cell-based
T4 sequence (P35348 whole entry): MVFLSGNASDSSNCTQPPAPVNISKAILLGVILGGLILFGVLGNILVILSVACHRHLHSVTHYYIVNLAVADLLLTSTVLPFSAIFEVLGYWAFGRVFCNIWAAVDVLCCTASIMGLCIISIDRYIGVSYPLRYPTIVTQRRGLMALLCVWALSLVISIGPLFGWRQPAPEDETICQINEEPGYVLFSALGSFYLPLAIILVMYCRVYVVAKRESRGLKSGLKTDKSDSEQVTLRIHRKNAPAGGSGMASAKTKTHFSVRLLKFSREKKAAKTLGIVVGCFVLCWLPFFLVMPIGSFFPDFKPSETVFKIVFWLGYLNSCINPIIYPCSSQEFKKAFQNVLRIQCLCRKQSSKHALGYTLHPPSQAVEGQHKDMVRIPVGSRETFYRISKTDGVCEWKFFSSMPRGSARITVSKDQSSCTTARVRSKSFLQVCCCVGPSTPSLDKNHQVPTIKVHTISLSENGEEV

[7] = molecular target: T5, Alpha-1B adrenergic receptor (Homo sapiens, UniProt P35368); test: Displacement of [3H]prazosin from human adrenergic alpha-1b receptor expressed in CHO cells; type: cell-based
T5 sequence (P35368 whole entry): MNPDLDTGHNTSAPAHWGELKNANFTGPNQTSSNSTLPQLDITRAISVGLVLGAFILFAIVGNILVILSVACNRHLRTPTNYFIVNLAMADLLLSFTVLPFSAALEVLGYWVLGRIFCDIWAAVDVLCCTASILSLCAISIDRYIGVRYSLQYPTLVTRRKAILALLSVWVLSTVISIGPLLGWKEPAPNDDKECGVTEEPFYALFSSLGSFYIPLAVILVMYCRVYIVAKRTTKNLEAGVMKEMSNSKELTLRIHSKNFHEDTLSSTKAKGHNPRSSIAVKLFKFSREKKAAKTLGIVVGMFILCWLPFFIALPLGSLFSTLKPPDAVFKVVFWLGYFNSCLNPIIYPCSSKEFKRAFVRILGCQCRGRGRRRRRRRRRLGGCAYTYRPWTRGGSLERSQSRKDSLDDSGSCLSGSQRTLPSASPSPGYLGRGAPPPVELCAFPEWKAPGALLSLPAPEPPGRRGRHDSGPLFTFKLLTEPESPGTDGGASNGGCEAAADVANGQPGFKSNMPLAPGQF

[8] = molecular target: T6, Alpha-1D adrenergic receptor (Homo sapiens, UniProt P25100); test: Displacement of [3H]prazosin from human adrenergic alpha-1d receptor expressed in CHO cells; type: cell-based
T6 sequence (P25100 whole entry): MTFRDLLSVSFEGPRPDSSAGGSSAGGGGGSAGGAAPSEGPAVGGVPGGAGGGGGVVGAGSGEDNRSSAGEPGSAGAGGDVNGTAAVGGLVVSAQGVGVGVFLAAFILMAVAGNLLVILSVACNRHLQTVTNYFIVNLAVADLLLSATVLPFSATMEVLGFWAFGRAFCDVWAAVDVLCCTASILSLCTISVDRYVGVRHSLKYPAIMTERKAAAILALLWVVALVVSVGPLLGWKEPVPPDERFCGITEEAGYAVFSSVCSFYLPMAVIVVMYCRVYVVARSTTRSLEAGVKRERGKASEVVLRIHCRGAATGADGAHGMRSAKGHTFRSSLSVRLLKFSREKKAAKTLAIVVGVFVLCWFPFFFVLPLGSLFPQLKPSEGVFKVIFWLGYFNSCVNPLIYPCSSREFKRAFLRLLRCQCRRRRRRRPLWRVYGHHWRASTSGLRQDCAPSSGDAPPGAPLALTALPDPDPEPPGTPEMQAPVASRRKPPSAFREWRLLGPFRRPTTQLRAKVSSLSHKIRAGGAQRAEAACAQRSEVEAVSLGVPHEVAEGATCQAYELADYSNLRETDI

[9] = molecular target: Adrenergic receptors; alpha-1 A & B (Homo sapiens) (UniProt P35348+P35368); test: Selectivity ratio of pKi for human adrenergic alpha-1a receptor to pKi for human adrenergic alpha-1b receptor; type: protein assay
Homo sapiens = species: Homo sapiens; test: Selectivity ratio of pKi for human adrenergic alpha-1d receptor to pKi for human adrenergic alpha-1b receptor
[10] = molecular target: Alpha adrenergic receptor (1a and 1d) (Homo sapiens) (UniProt P35348+P25100); test: Selectivity ratio of pKi for human adrenergic alpha-1a receptor to pKi for human adrenergic alpha1d receptor; type: protein assay
[11] = molecular target: T7, Alpha-1A adrenergic receptor (Rattus norvegicus, UniProt P43140); test: as §1; type: functional, tissue-based; details: read-out: pA2 (converted)
T7 sequence (P43140 whole entry): T1 sequence (whole entry)

[12] = molecular target: T8, Alpha-1D adrenergic receptor (Rattus norvegicus, UniProt P23944); test: as §3; type: functional, tissue-based; details: read-out: pA2 (converted)
T8 sequence (P23944 whole entry): T3 sequence (whole entry)

[13] = molecular target: T9, Alpha-1B adrenergic receptor (Rattus norvegicus, UniProt P15823); test: as §2; type: functional, tissue-based; details: read-out: pA2 (converted)
T9 sequence (P15823 whole entry): T2 sequence (whole entry)

SMILES	pKb [1]	pKb [2]	pKb [3]	Selectivity ratio [4]	Selectivity ratio (Rattus norvegicus)	Selectivity ratio [5]	Ki [6]	Ki [7]	Ki [8]	Selectivity ratio [9]	Selectivity ratio (Homo sapiens)	Selectivity ratio [10]	Kb [11]	Kb [12]	Kb [13]
COc1ccc(C(=O)N2CCN(c3nc(N)c4cc(OC)c(OC)cc4n3)[C@@H]3CCCC[C@@H]32)o1		8.5		45	28	2	27.5 nM	0.871 nM	3.63 nM	32	4	8	141 nM	89.1 nM	
COc1cc2nc(N3CCN(C(=O)c4ccc(C)o4)[C@H]4CCCC[C@H]43)nc(N)c2cc1OC				148	41	4	23.4 nM	0.871 nM	4.79 nM	27	6	5	331 nM	91.2 nM	2.24 nM
COc1cc2nc(N3CCN(C(=O)c4ccccn4)[C@H]4CCCC[C@H]43)nc(N)c2cc1OC	7.04	8.64	7.12	40	33	1	49 nM	5.89 nM	26.9 nM	8	5	2			
COc1cc2nc(N3CCN(C(=O)c4ccco4)[C@H]4CCCC[C@H]43)nc(N)c2cc1OC [CYCLAZOSIN]		8.86					12.3 nM	0.135 nM	3.24 nM				17 nM		
COc1cc2nc(N3CCN(C(=O)c4ccc(C(C)=O)o4)[C@H]4CCCC[C@H]43)nc(N)c2cc1OC	7.05	8.13		12	29	0.4	25.7 nM	1.38 nM	7.41 nM	19	5	4		214 nM	

These reach a lower Ki [6]. Values come first.

pKb [1]	pKb [2]	pKb [3]	Selectivity ratio [4]	Selectivity ratio (Rattus norvegicus)	Selectivity ratio [5]	Ki [6]	Ki [7]	Ki [8]	Selectivity ratio [9]	Selectivity ratio (Homo sapiens)	Selectivity ratio [10]	Kb [11]	Kb [12]	Kb [13]	SMILES
7.06	8.05	7.33	10	5	2	10.5 nM	3.16 nM	1.51 nM	3	0.5	7				COc1cc2nc(N3CCN(C(=O)c4ccc[nH]4)[C@H]4CCCC[C@H]43)nc(N)c2cc1OC
7.53	8.5		9	19	0.5	3.47 nM	0.309 nM	1.55 nM	11	5	2		58.9 nM		COc1cc2nc(N3CCN(C(=O)c4ccc(Br)o4)[C@H]4CCCC[C@H]43)nc(N)c2cc1OC
7.44	8.78		22	21	1	4.27 nM	0.24 nM	2.34 nM	18	10	2		35.5 nM		COc1cc2nc(N3CCN(C(=O)c4cccs4)[C@H]4CCCC[C@H]43)nc(N)c2cc1OC
	8.83	7.76	21	12	2	4.17 nM	0.49 nM	3.24 nM	8.5	7	1	30.9 nM			COc1cc2nc(N3CCN(C(=O)c4ccccc4)[C@H]4CCCC[C@H]43)nc(N)c2cc1OC
